Results on one compound are retold here after patent publication US20080108511A1, “GENES AND GENE PRODUCTS […] EXPRESSED DURING HEART FAILURE” (priority 2006, published 2008).

Marks after values point to notes of the source that are not given here.

This series relates to turkey poults. The settings on record: in vivo. From the text: The values shown in Table 4 are the average values±the standard error. The values in parentheses indicate the number of hearts. CK is creatine kinase, LDH is lactate dehydrogenase, and AST is aspartate transaminase. Ca^2+-ATPase activity was normalized per gram of protein. * represents p<0.05.

As to `O=C1OCCN1/N=C/c1ccc([N+](=O)[O-])o1` [Fz, furazolidone], the ATP synthase was 87 ± 4* (4) IU/g, the LDH is 219 ± 12* (9) IU/g, the Myoglobin was 27.2 ± 3.1* (5) μg/g and the “SR Ca2+ cycling: Ca2+-ATPase” value is listed as 3.4 ± 0.6* (4) IU/g. In addition, the “SR Ca2+ cycling: Ca2+-ATPase pump” value was 24.4 ± 6.3* (9) nM/s, the “Total ATPase” value is 16.8 ± 0.9* (4) IU/g, the Total protein is 111 ± 3.0* (8) mg/g and the myofibrillar protein content is 34.6 ± 2.5 mg/g.
